Laboratory results: patent US20020076833A1, “Analysis of biological samples utilizing a coated solid phase” (priority 2000, published 2002)

Tests used:
Type in all cases: cell-based, human
[1] = system: membrane GPIIb/IIIa on platelets; test: GPIIb/IIIa assay with fibrinogen-coated microparticles (Example 7); conditions: two minutes
Experimental: 3.7 micron (μm) carboxyl-modified paramagnetic microparticles were coated with Human Fibrinogen which interacts and binds with the complexed form of the platelet membrane surface component glycoproteins GPIIb/GPIIIa (CD41/CD61). The coated particles were re-suspended in phosphate buffered saline (PBS) buffer at 0.5% w/v.
(§1) Whole blood was obtained from a healthy volunteer and collected into a 3.0 mL blood collection tube containing 0.3 μg D-phe-pro-arg-chloromethylketone (PPACK, Dihydrochloride) and 2.1 mL Hanks' Balanced Salt supplemented with 10 mM HEPES, pH 7.4. An aliquot of this whole blood preparation was stimulated with 10 μM adenosine 5′-diphosphate (ADP) for two minutes prior to being tested in the assay. Another aliquot was stimulated with 2 μM adenosine 5′-diphosphate (ADP) for two minutes prior to being tested in the assay, and a final aliquot was not treated with ADP.
To a set of 5 μL, 10 μL, and 20 μL of each of the above three sample preparations 20 μL of FITC-labeled anti-IIb/IIIa (anti-CD41a) mouse monoclonal antibody (at 20 μg/mL) was added. The mixture was incubated for 10 minutes at room temperate at which point 50 μL of 0.5% (w/v) paramagnetic microparticles (3.7 micron (μm)) coated with Fibrinogen was added. The mixtures were incubated at room temperature for an additional 10 minutes. The microparticles were separated magnetically and the supernatant was removed. The microparticles were washed by re-suspension in 200 μL of PBS supplemented with 1% bovine serum albumin (BSA), followed by magnetic separation of the microparticles and removal of the supernatant. This sequence was repeated three times and the microparticles were re-suspended in 0.1% SDS at pH 11. The microparticles were separated magnetically and the supernatants were transferred to a 96 well plate and examined for fluorescence intensity.

[2] = system: membrane-bound P-selectin on platelets; test: 1-Step membrane P-selectin assay in whole blood (Example 5); conditions: 10 μM ADP for two minutes, formalin fixed
Experimental: Whole blood was obtained from a healthy volunteer and collected into a blood collection tube containing D-phe-pro-arg-chloromethylketone (PPACK, Dihydrochloride). An aliquot of whole blood was stimulated with 10 μM adenosine diphosphate (ADP) for two minutes and then fixed for two minutes with neutral buffered formalin (1% final concentration). Another aliquot was not treated with ADP, but only fixed with 1% neutral buffered formalin for two minutes
To 100 μL of each of the above three sample preparations the following reagents were added: 50 μL of FITC-labeled anti-P-selectin (anti-CD62P) rabbit polyclonal antibody (at 20 μg/mL) and 50 μL of 0.5% (w/v) paramagnetic microparticles (3.7 micron (μm)) coated with anti-glycoprotein GPIb (CD42b) murine monoclonal antibody (Mab). The mixtures were incubated at room temperature for either 10 or 15 minutes. The microparticles were separated magnetically and the supernatant was removed. The microparticles were washed by re-suspension in 200 μL of PBS supplemented with 1% bovine serum albumin (BSA) followed by magnetic separation of the microparticles and removal of the supernatant. This sequence was repeated and the microparticles were re-suspended in 0.1% SDS at pH 11. The microparticles were separated magnetically and the supernatants were transferred to a 96 well plate and examined for fluorescence intensity.

[3] = system: membrane P-selectin on platelets; test: 2-Step membrane P-selectin assay in whole blood (Example 6); conditions: 10 μM ADP (with 1.0 uM Epinepherine where named) for two minutes, formalin treated
Experimental: Whole blood was obtained from a healthy volunteer and collected into a sample collection tube containing D-Phe-Pro-Arg-chloromethylketone (PPACK, dihydrochloride). An aliquot of whole blood was stimulated with 10 μM adenosine diphosphate (ADP) and 1.0 uM Epinepherine for two minutes and then treated for two minutes with neutral buffered formalin (1% final concentration). An additional aliquot of whole blood was stimulated with 10 μM ADP for two minutes and then treated for two minutes with neutral buffered formalin. An additional aliquot of whole blood was treated for two minutes with 1% neutral buffered formalin for two minutes without ADP stimulation.
50 μL of 0.5% (w/v) paramagnetic microparticles (3.7 micron (μm)), which were coated with anti-glycoprotein GP1b murine monoclonal antibodies (Mab), were added to 100 μL of each of the above sample preparations. The mixtures were incubated at room temperature for 10 minutes. The microparticles were separated magnetically and the supernatant was removed. The microparticles were washed by re-suspension in 200 μL of PBS supplemented with 1% BSA. The microparticles were again separated magnetically and the supernatant removed. […] The microparticles were separated magnetically and the supernatants transferred to a 96 well plate and examined for fluorescence intensity.

[4] = system: membrane-bound P-selectin on platelets; test: Membrane P-Selectin assay (Example 8); conditions: two minutes
Experimental: as §1
To a set of 10 μL and 20 μL of each of the above three sample preparations 20 μL of FITC-labeled anti P-Selectin (anti-CD62P) rabbit polyclonal antibody (at 20 μg/mL) was added. The mixture was incubated for 10 minutes at room temperate at which point 50 μL of 0.5% (w/v) paramagnetic microparticles (3.7 micron (μm)) coated with anti-glycoprotein GP1b (CD42b) murine monoclonal antibody (Mab) was added. The mixtures were incubated at room temperature for an additional 10 minutes. The microparticles were separated magnetically and the supernatant was removed. The microparticles were washed by re-suspension in 200 μL of PBS supplemented with 1% bovine serum albumin (BSA) followed by magnetic separation of the microparticles and removal of the supernatant. This sequence was repeated three times and the microparticles were re-suspended in 0.1% SDS at pH 11. The microparticles were separated magnetically, and the supernatants were transferred to a 96 well plate and examined for fluorescence intensity.

Nc1ncnc2c1ncn2[C@@H]1O[C@H](COP(=O)(O)OP(=O)(O)O)[C@@H](O)[C@H]1O [ADP, adenosine diphosphate]
FITC Signal Detected ([1]; 2 uM ADP, sample volume 5 μL): 524
FITC Signal Detected ([1]; 2 uM ADP, sample volume 10 μL): 579
FITC Signal Detected ([1]; 2 uM ADP, sample volume 20 μL): 896
FITC Signal Detected ([1]; 10 uM ADP, sample volume 5 μL): 525
FITC Signal Detected ([1]; 10 uM ADP, sample volume 10 μL): 616
FITC Signal Detected ([1]; 10 uM ADP, sample volume 20 μL): 1031
FITC Signal Detected ([2]; 10 min. incubation): 1235
FITC Signal Detected ([2]; 15 min. incubation): 1526
FITC Signal Detected [3]: 17349
FITC Signal Detected ([4]; 2 μM ADP, sample volume 10 μL): 1544
FITC Signal Detected ([4]; 2 μM ADP, sample volume 20 μL): 2390
FITC Signal Detected ([4]; 10 μM ADP, sample volume 10 μL): 1749
FITC Signal Detected ([4]; 10 μM ADP, sample volume 20 μL): 2747
